In ChEMBL document CHEMBL5055672, “Design, Synthesis, Biological Evaluation, and Computational Studies of Novel Fluorinated Candidates as PI3K Inhibitors: Targeting Fluorophilic Binding Sites” (J Med Chem, 2021):

Key:
[1] = system: CCRF-CEM; assay: Cytotoxicity against human CCRF-CEM cells assessed as growth inhibition at 10 uM after 48 hrs by sulforhodamine B assay; type: functional; conditions: read-out: GI
[2] = system: HL-60(TB); assay: Cytotoxicity against human HL-60(TB) cells assessed as growth inhibition at 10 uM after 48 hrs by sulforhodamine B assay; type: functional; conditions: read-out: GI
[3] = system: K562; assay: Cytotoxicity against human K562 cells assessed as growth inhibition at 10 uM after 48 hrs by sulforhodamine B assay; type: functional; conditions: read-out: GI
[4] = system: MOLT-4; assay: Cytotoxicity against human MOLT-4 cells assessed as growth inhibition at 10 uM after 48 hrs by sulforhodamine B assay; type: functional; conditions: read-out: GI
[5] = system: RPMI-8226; assay: Cytotoxicity against human RPMI-8226 cells assessed as growth inhibition at 10 uM after 48 hrs by sulforhodamine B assay; type: functional; conditions: read-out: GI
[6] = system: SR; assay: Cytotoxicity against human SR cells assessed as growth inhibition at 10 uM after 48 hrs by sulforhodamine B assay; type: functional; conditions: read-out: GI
[7] = system: A549; assay: Cytotoxicity against human A549 cells assessed as growth inhibition at 10 uM after 48 hrs by sulforhodamine B assay; type: functional; conditions: read-out: GI
[8] = system: NCI-H226; assay: Cytotoxicity against human NCI-H226 cells assessed as growth inhibition at 10 uM after 48 hrs by sulforhodamine B assay; type: functional; conditions: read-out: GI
[9] = system: NCI-H522; assay: Cytotoxicity against human NCI-H522 cells assessed as growth inhibition at 10 uM after 48 hrs by sulforhodamine B assay; type: functional; conditions: read-out: GI
[10] = system: HCC 2998; assay: Cytotoxicity against human HCC 2998 cells assessed as growth inhibition at 10 uM after 48 hrs by sulforhodamine B assay; type: functional; conditions: read-out: GI
[11] = system: HCT-15; assay: Cytotoxicity against human HCT-15 cells assessed as growth inhibition at 10 uM after 48 hrs by sulforhodamine B assay; type: functional; conditions: read-out: GI
[12] = system: HT-29; assay: Cytotoxicity against human HT-29 cells assessed as growth inhibition at 10 uM after 48 hrs by sulforhodamine B assay; type: functional; conditions: read-out: GI
[13] = system: KM12; assay: Cytotoxicity against human KM12 cells assessed as growth inhibition at 10 uM after 48 hrs by sulforhodamine B assay; type: functional; conditions: read-out: GI
[14] = system: LOX IMVI; assay: Cytotoxicity against human LOX IMVI cells assessed as growth inhibition at 10 uM after 48 hrs by sulforhodamine B assay; type: functional; conditions: read-out: GI
[15] = system: M14; assay: Cytotoxicity against human M14 cells assessed as growth inhibition at 10 uM after 48 hrs by sulforhodamine B assay; type: functional; conditions: read-out: GI
[16] = system: UACC-62; assay: Cytotoxicity against human UACC-62 cells assessed as growth inhibition at 10 uM after 48 hrs by sulforhodamine B assay; type: functional; conditions: read-out: GI
[17] = system: OVCAR-4; assay: Cytotoxicity against human OVCAR-4 cells assessed as growth inhibition at 10 uM after 48 hrs by sulforhodamine B assay; type: functional; conditions: read-out: GI
[18] = system: NCI/ADR-RES; assay: Cytotoxicity against human NCI-ADR-RES cells assessed as growth inhibition at 10 uM after 48 hrs by sulforhodamine B assay; type: functional; conditions: read-out: GI
[19] = system: ACHN; assay: Cytotoxicity against human ACHN cells assessed as growth inhibition at 10 uM after 48 hrs by sulforhodamine B assay; type: functional; conditions: read-out: GI
[20] = system: CAKI-1; assay: Cytotoxicity against human CAKI-1 cells assessed as growth inhibition at 10 uM after 48 hrs by sulforhodamine B assay; type: functional; conditions: read-out: GI
[21] = system: SN12C; assay: Cytotoxicity against human SN12C cells assessed as growth inhibition at 10 uM after 48 hrs by sulforhodamine B assay; type: functional; conditions: read-out: GI
[22] = system: UO-31; assay: Cytotoxicity against human UO-31 cells assessed as growth inhibition at 10 uM after 48 hrs by sulforhodamine B assay; type: functional; conditions: read-out: GI
[23] = system: DU-145; assay: Cytotoxicity against human DU-145 cells assessed as growth inhibition at 10 uM after 48 hrs by sulforhodamine B assay; type: functional; conditions: read-out: GI
[24] = system: MCF7; assay: Cytotoxicity against human MCF7 cells assessed as growth inhibition at 10 uM after 48 hrs by sulforhodamine B assay; type: functional; conditions: read-out: GI
[25] = system: T47D; assay: Cytotoxicity against human T47D cells assessed as growth inhibition at 10 uM after 48 hrs by sulforhodamine B assay; type: functional; conditions: read-out: GI
[26] = system: MCF7; assay: Antiproliferative activity against human MCF7 cells assessed as inhibition of cell growth incubated for 48 hrs by MTT assay; type: functional, cell-based; conditions: MCF7, 48 h
[27] = system: MCF-10A; assay: Cytotoxicity against human MCF10A cells assessed as inhibition of cell growth incubated for 48 hrs by MTT assay; type: cell-based
[28] = Selectivity index, ratio of IC50 for human MCF-10A cells to IC50 for human MCF7 cells; type: toxicity; conditions: MCF-10A cells versus MCF7 cells, read-out: Ratio IC50
[29] = target: Phosphatidylinositol 4,5-bisphosphate 3-kinase catalytic subunit alpha isoform (Homo sapiens, UniProt P42336); assay: Inhibition of PI3Kalpha (unknown origin) using PIP2 as substrate preincubated for 10 mins followed by substrate addition and measured after 1 hr by ELISA
Chain of Phosphatidylinositol 4,5-bisphosphate 3-kinase catalytic subunit alpha isoform (P42336 whole entry, canonical isoform): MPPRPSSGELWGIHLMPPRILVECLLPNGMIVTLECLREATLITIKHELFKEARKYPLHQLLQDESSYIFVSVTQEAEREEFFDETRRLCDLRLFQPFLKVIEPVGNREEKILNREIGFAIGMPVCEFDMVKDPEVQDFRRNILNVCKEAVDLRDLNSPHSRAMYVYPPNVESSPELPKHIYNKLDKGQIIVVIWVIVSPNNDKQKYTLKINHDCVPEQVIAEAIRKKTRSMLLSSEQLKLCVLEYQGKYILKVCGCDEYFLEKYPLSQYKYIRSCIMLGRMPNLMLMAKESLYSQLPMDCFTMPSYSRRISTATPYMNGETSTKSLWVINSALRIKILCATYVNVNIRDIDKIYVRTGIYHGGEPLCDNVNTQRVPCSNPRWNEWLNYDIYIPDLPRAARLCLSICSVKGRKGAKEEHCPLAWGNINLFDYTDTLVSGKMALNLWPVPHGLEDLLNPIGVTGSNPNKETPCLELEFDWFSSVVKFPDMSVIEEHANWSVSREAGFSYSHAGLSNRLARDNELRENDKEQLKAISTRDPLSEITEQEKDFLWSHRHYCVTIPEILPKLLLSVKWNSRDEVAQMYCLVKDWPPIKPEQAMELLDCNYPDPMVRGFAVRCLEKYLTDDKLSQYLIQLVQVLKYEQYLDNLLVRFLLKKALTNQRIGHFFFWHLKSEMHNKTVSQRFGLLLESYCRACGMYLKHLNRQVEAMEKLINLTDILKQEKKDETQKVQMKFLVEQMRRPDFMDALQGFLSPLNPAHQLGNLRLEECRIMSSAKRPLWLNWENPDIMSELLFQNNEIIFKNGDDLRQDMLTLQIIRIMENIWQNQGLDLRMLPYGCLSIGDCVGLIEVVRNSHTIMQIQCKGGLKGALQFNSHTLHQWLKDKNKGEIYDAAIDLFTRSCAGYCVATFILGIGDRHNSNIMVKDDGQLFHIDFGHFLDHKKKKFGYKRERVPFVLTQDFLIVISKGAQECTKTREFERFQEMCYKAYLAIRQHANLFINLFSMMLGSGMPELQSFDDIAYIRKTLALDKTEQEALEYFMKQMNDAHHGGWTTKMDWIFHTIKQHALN

[30] = system: MCF7; assay: Induction of cell cycle arrest in human MCF7 cells assessed as accumulation of cells at G phase at IC50 concentration by Propidium iodide staining based flow cytometric analysis (reference value: 1.76%); type: functional
[31] = system: MCF7; assay: Induction of cell cycle arrest in human MCF7 cells assessed as accumulation of cells at G1 phase at IC50 concentration by Propidium iodide staining based flow cytometric analysis (reference value: 61.45%); type: functional
[32] = system: MCF7; assay: Induction of cell cycle arrest in human MCF7 cells assessed as accumulation of cells at G2/M phase at IC50 concentration by Propidium iodide staining based flow cytometric analysis (reference value: 10.94%); type: functional
[33] = system: MCF7; assay: Induction of cell cycle arrest in human MCF7 cells assessed as accumulation of cells at S phase at IC50 concentration by Propidium iodide staining based flow cytometric analysis (reference value: 27.61%); type: functional
[34] = system: MCF7; assay: Induction of apoptosis in human MCF7 cells assessed as early apoptotic cells at 2.25 uM after 48 hrs by annexin V-FITC/propidium iodide staining based flow cytometric analysis (reference value: 0.36%); type: functional
[35] = system: MCF7; assay: Induction of apoptosis in human MCF7 cells assessed as late apoptotic cells at 2.25 uM after 48 hrs by annexin V-FITC/propidium iodide staining based flow cytometric analysis (reference value: 0.14%); type: functional
[36] = system: MCF7; assay: Induction of apoptosis in human MCF7 cells assessed as necrotic cells at 2.25 uM after 48 hrs by annexin V-FITC/propidium iodide staining based flow cytometric analysis (reference value: 1.26%); type: functional
[37] = target: Phosphatidylinositol 4,5-bisphosphate 3-kinase catalytic subunit beta isoform (Homo sapiens, UniProt P42338); assay: Inhibition of PI3Kbeta (unknown origin) using PIP2 as substrate preincubated for 10 mins followed by substrate addition and measured after 1 hr by ELISA
Chain of Phosphatidylinositol 4,5-bisphosphate 3-kinase catalytic subunit beta isoform (P42338 whole entry, canonical isoform): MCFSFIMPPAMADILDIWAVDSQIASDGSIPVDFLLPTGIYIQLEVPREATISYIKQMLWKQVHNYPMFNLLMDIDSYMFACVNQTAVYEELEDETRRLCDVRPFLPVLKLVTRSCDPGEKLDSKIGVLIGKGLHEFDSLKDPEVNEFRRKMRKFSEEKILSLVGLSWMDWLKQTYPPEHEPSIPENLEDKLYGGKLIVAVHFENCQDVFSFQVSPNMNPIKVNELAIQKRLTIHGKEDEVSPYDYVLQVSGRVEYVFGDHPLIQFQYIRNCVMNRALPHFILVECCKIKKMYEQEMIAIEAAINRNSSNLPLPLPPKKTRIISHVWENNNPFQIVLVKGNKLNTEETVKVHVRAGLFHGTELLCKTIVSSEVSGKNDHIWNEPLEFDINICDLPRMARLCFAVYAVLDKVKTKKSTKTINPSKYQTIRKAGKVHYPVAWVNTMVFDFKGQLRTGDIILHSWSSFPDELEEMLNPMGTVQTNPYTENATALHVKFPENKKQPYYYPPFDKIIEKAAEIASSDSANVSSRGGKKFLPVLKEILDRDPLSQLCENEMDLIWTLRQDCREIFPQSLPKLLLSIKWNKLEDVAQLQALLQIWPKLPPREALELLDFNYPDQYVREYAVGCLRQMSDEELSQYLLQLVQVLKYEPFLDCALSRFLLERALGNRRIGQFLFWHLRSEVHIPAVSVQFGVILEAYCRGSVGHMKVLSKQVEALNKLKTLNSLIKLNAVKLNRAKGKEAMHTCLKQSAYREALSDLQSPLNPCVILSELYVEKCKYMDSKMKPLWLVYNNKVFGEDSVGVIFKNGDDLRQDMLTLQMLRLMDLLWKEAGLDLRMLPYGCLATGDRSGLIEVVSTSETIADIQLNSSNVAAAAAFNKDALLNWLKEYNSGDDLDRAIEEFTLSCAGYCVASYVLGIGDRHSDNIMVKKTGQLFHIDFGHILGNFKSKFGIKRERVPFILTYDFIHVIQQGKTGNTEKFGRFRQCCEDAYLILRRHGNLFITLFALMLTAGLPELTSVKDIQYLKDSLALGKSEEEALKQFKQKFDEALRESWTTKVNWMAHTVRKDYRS

[38] = target: T1, Phosphatidylinositol 4,5-bisphosphate 3-kinase catalytic subunit delta isoform (Homo sapiens, UniProt O00329); assay: Inhibition of PI3Kdelta (unknown origin) using PIP2 as substrate preincubated for 10 mins followed by substrate addition and measured after 1 hr by ELISA
T1 sequence (O00329 whole entry): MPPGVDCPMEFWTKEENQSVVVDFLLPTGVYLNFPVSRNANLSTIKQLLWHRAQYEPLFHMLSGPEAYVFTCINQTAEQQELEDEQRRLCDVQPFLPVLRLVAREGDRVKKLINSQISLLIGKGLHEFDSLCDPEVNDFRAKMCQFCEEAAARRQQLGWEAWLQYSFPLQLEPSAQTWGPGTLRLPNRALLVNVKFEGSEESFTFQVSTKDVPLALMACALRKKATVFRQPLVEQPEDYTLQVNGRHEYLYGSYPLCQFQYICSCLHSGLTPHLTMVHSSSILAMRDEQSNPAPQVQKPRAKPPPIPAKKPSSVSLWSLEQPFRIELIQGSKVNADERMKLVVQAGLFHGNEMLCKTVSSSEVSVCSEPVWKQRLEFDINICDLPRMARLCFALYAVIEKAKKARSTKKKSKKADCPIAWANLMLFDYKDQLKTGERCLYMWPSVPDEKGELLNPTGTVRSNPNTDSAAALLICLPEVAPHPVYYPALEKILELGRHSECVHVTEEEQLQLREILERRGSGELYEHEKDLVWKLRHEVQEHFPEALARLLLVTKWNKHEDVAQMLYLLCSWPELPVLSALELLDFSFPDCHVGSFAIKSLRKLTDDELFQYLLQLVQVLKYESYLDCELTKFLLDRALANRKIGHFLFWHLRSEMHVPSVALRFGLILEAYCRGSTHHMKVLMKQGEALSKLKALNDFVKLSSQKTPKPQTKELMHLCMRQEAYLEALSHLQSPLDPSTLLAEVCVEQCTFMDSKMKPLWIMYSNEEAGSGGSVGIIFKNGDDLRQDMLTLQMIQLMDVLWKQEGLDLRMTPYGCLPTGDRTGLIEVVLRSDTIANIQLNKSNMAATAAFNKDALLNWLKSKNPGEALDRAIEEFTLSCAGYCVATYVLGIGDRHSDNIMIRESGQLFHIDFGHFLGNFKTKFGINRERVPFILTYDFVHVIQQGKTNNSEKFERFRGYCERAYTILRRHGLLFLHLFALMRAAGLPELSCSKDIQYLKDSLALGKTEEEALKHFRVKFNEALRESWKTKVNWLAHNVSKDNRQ

SMILES: FC(F)(F)COc1ccc(-c2nnc(Nc3ccccc3)s2)cc1
- inhibition of growth at 10 µM [1]: 19.2%
- inhibition of growth at 10 µM [2]: 12.6%
- inhibition of growth at 10 µM [3]: 57.4%
- inhibition of growth at 10 µM [4]: 24.1%
- inhibition of growth at 10 µM [5]: 13.4%
- inhibition of growth at 10 µM [6]: 39.3%
- inhibition of growth at 10 µM [7]: 15%
- inhibition of growth at 10 µM [8]: 20.5%
- inhibition of growth at 10 µM [9]: 36.7%
- inhibition of growth at 10 µM [10]: 27.5%
- inhibition of growth at 10 µM [11]: 50.9%
- inhibition of growth at 10 µM [12]: 45.7%
- inhibition of growth at 10 µM [13]: 57.2%
- inhibition of growth at 10 µM [14]: 18.8%
- inhibition of growth at 10 µM [15]: 12.8%
- inhibition of growth at 10 µM [16]: 24.4%
- inhibition of growth at 10 µM [17]: 12.8%
- inhibition of growth at 10 µM [18]: 10.8%
- inhibition of growth at 10 µM [19]: 16.1%
- inhibition of growth at 10 µM [20]: 50%
- inhibition of growth at 10 µM [21]: 13.1%
- inhibition of growth at 10 µM [22]: 21.4%
- inhibition of growth at 10 µM [23]: 14.8%
- inhibition of growth at 10 µM [24]: 21.2%
- inhibition of growth at 10 µM [25]: 27.7%
- IC50 [26]: 2.25 µM
- IC50 [27]: 38 µM
- selectivity ratio [28]: 16.9
- IC50 [29]: 19.4 µM
- Activity [30]: 26.96%
- Activity [31]: 66.34%
- Activity [32]: 4.55%
- Activity [33]: 29.11%
- Activity [34]: 4.15%
- Activity [35]: 13.09%
- Activity [36]: 9.72%
- IC50 [37]: 30.7 µM
- IC50 [38]: 73.7 µM
